Experimental data reported in patent publication US20260042753A1 (Merck Patent GmbH, priority 2019, published 2026).

Legend:
c-Kit(V654A) = c-Kit(V654A) (Homo sapiens, UniProt P10721, V654A); assay: c-Kit(V654A) assay; format: biochemical; details: Table 1; 200 μM ATP
Method in brief: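 Radiometric filter-binding read-out: after 3% phosphoric acid stop, peptide-incorporated 33P on filtermat scintillation-counted. Enzyme: human c-Kit V654A, residues 544–end, N-terminal GST fusion.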

[1] = biological target: mutant cKIT (560-576 and V654A) in GIST430/654 cell line (Homo sapiens (Human), UniProt P10721, DEL560-576/V654A); assay: Cellular testing of cKIT mutant inhibitors: phospho-Y307-cKIT Luminex assay in GIST430/654 cells; format: cell-based; details: Table 1; cKIT autophosphorylation, compounds 45 min; read-out: GIST 430/654 IC50
Method in brief: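 GIST430/654 cells carrying constitutively active cKIT (Δ560-576/V654A) were grown with 100 nM imatinib, then treated with serially diluted compound for 45 min. Lysates were captured on anti-total-cKIT Luminex beads overnight at 4 °C and probed for phospho-Y307-cKIT. IC50 was fitted from percent of 0.3% DMSO control.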

Sequence of mutant cKIT (560-576 and V654A) in GIST430/654 cell line (P10721 other isoform, or with tags, fused parts or gaps V654A/del 1-25/del 560-576 limits assumed): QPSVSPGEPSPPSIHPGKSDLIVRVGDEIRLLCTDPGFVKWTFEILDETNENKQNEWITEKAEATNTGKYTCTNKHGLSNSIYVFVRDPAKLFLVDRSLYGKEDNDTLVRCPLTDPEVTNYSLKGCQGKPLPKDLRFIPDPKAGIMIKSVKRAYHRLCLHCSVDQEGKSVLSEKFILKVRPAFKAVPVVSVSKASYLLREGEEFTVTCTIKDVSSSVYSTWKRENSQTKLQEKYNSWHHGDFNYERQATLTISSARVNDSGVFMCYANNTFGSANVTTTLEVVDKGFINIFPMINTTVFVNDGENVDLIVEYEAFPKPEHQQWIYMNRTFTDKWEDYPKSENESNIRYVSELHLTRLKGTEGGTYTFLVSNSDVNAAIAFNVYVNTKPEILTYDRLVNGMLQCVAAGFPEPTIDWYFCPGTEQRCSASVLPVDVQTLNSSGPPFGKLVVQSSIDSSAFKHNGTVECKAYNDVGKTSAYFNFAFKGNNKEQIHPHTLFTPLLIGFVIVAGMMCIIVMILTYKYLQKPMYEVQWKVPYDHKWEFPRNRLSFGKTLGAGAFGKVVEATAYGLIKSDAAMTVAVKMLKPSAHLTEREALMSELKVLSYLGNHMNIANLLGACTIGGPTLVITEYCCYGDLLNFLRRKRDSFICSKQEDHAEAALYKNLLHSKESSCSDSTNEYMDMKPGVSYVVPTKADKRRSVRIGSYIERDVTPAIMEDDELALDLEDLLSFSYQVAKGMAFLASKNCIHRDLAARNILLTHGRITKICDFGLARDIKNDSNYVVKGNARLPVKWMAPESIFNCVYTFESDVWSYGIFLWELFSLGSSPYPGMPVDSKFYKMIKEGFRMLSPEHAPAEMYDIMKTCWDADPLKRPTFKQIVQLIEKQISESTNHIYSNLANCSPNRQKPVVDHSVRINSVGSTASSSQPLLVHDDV

Structure (SMILES) | IC50 (c-Kit(V654A)) [nM] | IC50 [1] [nM]
COCCOc1cc2[nH]nc(-c3cc(-c4ccc(C(=O)N5CCOC[C@@H]5CO)cc4)no3)c2cc1Cl [A66, (4-{5-[5-chloro-6-(2-methoxy-ethoxy)-1H-indazol-3-yl]-isoxazol-3-yl}-phenyl)-((S)-3-hydroxymethyl-morpholin-4-yl)-methanone] | 0.65 | 52
COCCOc1cc2[nH]nc(-c3cc(-c4ccc(S(C)(=O)=O)cc4)no3)c2cc1F [A16, 5-fluoro-3-[3-(4-methanesulfonylphenyl)-1,2-oxazol-5-yl]-6-(2-methoxyethoxy)-1H-indazole] | 4.8 | 94
COCCOc1cc2[nH]nc(-c3cc(-c4ccc(C(=O)N5CCC6(CCOCC6)C5)cc4)no3)c2cc1F [A159, 2-(4-{5-[5-fluoro-6-(2-methoxyethoxy)-1H-indazol-3-yl]-1,2-oxazol-3-yl}benzoyl)-8-oxa-2-azaspiro[4.5]decane] | 0.29 | 21
COCCOc1cc2[nH]nc(-c3cc(-c4ccc(C(=O)N5CCS(=N)(=O)CC5)cc4)no3)c2cc1F [A80, 4-(4-{5-[5-fluoro-6-(2-methoxyethoxy)-1H-indazol-3-yl]-1,2-oxazol-3-yl}benzoyl)-1-imino-1lambda6-thiomorpholin-1-one] | 0.99 | 460
COCCOc1cc2[nH]nc(-c3cc(-c4ccc(C(=O)N5CC6CC(C5)O6)cc4)no3)c2cc1F [A161, 5-fluoro-6-(2-methoxyethoxy)-3-[3-(4-{6-oxa-3-azabicyclo[3.1.1]heptane-3-carbonyl}phenyl)-1,2-oxazol-5-yl]-1H-indazole] | 0.45 | 40
COCCOc1cc2[nH]nc(-c3cc(-c4ccc(C(=O)N5CC6(CCOCC6)C5)cc4)no3)c2cc1F [A165, 2-(4-{5-[5-fluoro-6-(2-methoxyethoxy)-1H-indazol-3-yl]-1,2-oxazol-3-yl}benzoyl)-7-oxa-2-azaspiro[3.5]nonane] | 0.53 | 27
COCCOc1cc2[nH]nc(-c3cc(-c4ccc(C(=O)N5C[C@H]6COC[C@H]6C5)c(F)c4)no3)c2cc1F [A71, (2-fluoro-4-{5-[5-fluoro-6-(2-methoxy-ethoxy)-1H-indazol-3-yl]-isoxazol-3-yl}-phenyl)-(cis)-tetrahydro-furo[3,4-c]pyrrol-5-yl-methanone] | 4.3 | 90
COCCOc1cc2[nH]nc(-c3cc(-c4ccc(C(=O)N5CC[C@@H]5C(C)(C)O)cc4)no3)c2cc1F [A58, 2-[(2R)-1-(4-{5-[5-fluoro-6-(2-methoxyethoxy)-1H-indazol-3-yl]-1,2-oxazol-3-yl}benzoyl)azetidin-2-yl]propan-2-ol] | 0.78 | 52
COCCOc1cc2[nH]nc(-c3cc(-c4ccc(N5CC[S+]([O-])CC5)nc4)no3)c2cc1F [A140, 4-(5-{5-[5-fluoro-6-(2-methoxyethoxy)-1H-indazol-3-yl]-1,2-oxazol-3-yl}pyridin-2-yl)-1lambda4-thiomorpholin-1-one] | 1.6 | 46
COc1cc2[nH]nc(-c3cc(-c4ccc(C(=O)N5CCC[C@H]5CS(C)(=O)=O)cc4)no3)c2cc1F [A117, 5-fluoro-3-(3-{4-[(2S)-2-(methanesulfonylmethyl)pyrrolidine-1-carbonyl]phenyl}-1,2-oxazol-5-yl)-6-methoxy-1H-indazole] | 3.6 | 100
COCCOc1cc2[nH]nc(-c3cc(-c4ccc(C(=O)N5CCC6(CN(C)C6)C5)cc4)no3)c2cc1F [A160, 5-fluoro-6-(2-methoxyethoxy)-3-[3-(4-{2-methyl-2,6-diazaspiro[3.4]octane-6-carbonyl}phenyl)-1,2-oxazol-5-yl]-1H-indazole] | 2.5 | 170
COCCOc1cc2[nH]nc(-c3cc(-c4ccc(N5CCCS5(=O)=O)cc4)no3)c2cc1F [A138, 2-(4-{5-[5-fluoro-6-(2-methoxyethoxy)-1H-indazol-3-yl]-1,2-oxazol-3-yl}phenyl)-1lambda6,2-thiazolidine-1,1-dione] | 6.4 | 160
COCCOc1cc2[nH]nc(-c3cc(-c4ccc(C(=O)N5C[C@@H]6CS(=O)(=O)C[C@@H]6C5)cc4)no3)c2cc1F [A217, (cis)-5-(4-{5-[5-fluoro-6-(2-methoxyethoxy)-1H-indazol-3-yl]-1,2-oxazol-3-yl}benzoyl)-hexahydro-1H-2lambda6-thieno[3,4-c]pyrrole-2,2-dione] | 0.32 | 43
COCCOc1cc2[nH]nc(-c3cc(-c4ccc(C(=O)N5CC(c6nc(C)no6)C5)cc4)no3)c2cc1F [A166, 5-fluoro-6-(2-methoxyethoxy)-3-(3-{4-[3-(3-methyl-1,2,4-oxadiazol-5-yl)azetidine-1-carbonyl]phenyl}-1,2-oxazol-5-yl)-1H-indazole] | 0.96 | 87
COCCOc1cc2[nH]nc(-c3cc(-c4ccc(C(=O)N5CCN(C)CC5)cc4)no3)c2cc1Cl [A167, (4-{5-[5-chloro-6-(2-methoxy-ethoxy)-1H-indazol-3-yl]-isoxazol-3-yl}-phenyl)-(4-methyl-piperazin-1-yl)-methanone] | 0.4 | 74
COCCOc1cc2[nH]nc(-c3cc(-c4ccc(N5CCS(=O)(=O)CC5)nc4)no3)c2cc1F [A131, 4-(5-{5-[5-fluoro-6-(2-methoxyethoxy)-1H-indazol-3-yl]-1,2-oxazol-3-yl}pyridin-2-yl)-1lambda6-thiomorpholine-1,1-dione] | 3 | 65
COCCOc1cc2[nH]nc(-c3cc(-c4ccc(N5CC[S+]([O-])CC5)cc4)no3)c2cc1F [A127, 4-(4-{5-[5-fluoro-6-(2-methoxyethoxy)-1H-indazol-3-yl]-1,2-oxazol-3-yl}phenyl)-1lambda4-thiomorpholin-1-one] | 0.37 | 24
COCCOc1cc2[nH]nc(-c3cc(-c4ccc(C(=O)N5CC[C@@H]5CO)cc4)no3)c2cc1F [A97, [(2R)-1-(4-{5-[5-fluoro-6-(2-methoxyethoxy)-1H-indazol-3-yl]-1,2-oxazol-3-yl}benzoyl)azetidin-2-yl]methanol] | 0.97 | 41
COCCOc1cc2[nH]nc(-c3cc(-c4ccc(C(=O)N(C)C)cc4)no3)c2cc1F [A20, 4-{5-[5-fluoro-6-(2-methoxyethoxy)-1H-indazol-3-yl]-1,2-oxazol-3-yl}-N,N-dimethylbenzamide] | 1.7 | 48
COCCOc1cc2[nH]nc(-c3cc(-c4ccc(C(=O)N5CC[C@@H](F)C5)nc4)no3)c2cc1F [A100, 5-fluoro-3-(3-{6-[(3R)-3-fluoropyrrolidine-1-carbonyl]pyridin-3-yl}-1,2-oxazol-5-yl)-6-(2-methoxyethoxy)-1H-indazole] | 5.7 | 340
COCCOc1cc2[nH]nc(-c3cc(-c4ccc(N5CCOCC5=O)cc4)no3)c2cc1F [A139, 4-(4-{5-[5-fluoro-6-(2-methoxyethoxy)-1H-indazol-3-yl]-1,2-oxazol-3-yl}phenyl)morpholin-3-one] | 1.2 | 68
COCCOc1cc2[nH]nc(-c3cc(-c4ccc(C(=O)N5C[C@H]6COC[C@H]6C5)c(C)c4)no3)c2cc1F [A70, (4-{5-[5-fluoro-6-(2-methoxy-ethoxy)-1H-indazol-3-yl]-isoxazol-3-yl}-2-methyl-phenyl)-(cis)-tetrahydro-furo[3,4-c]pyrrol-5-yl-methanone] | 2.1 | 81
COCCOc1cc2[nH]nc(-c3cc(-c4ccc(C(=O)N5CC(O)(c6ccncc6)C5)cc4)no3)c2cc1F [A206, 1-(4-{5-[5-fluoro-6-(2-methoxyethoxy)-1H-indazol-3-yl]-1,2-oxazol-3-yl}benzoyl)-3-(pyridin-4-yl)azetidin-3-ol] | 0.67 | 79
COCCOc1cc2[nH]nc(-c3cc(-c4ccc(S(=O)(=O)N5CCOCC5)cc4)no3)c2cc1F [A227, 5-fluoro-6-(2-methoxyethoxy)-3-{3-[4-(morpholine-4-sulfonyl)phenyl]-1,2-oxazol-5-yl}-1H-indazole] | 3 | 170
COCCOc1cc2[nH]nc(-c3cc(-c4ccc(-n5nc(C)ccc5=O)cc4)no3)c2cc1F [A136, 2-(4-{5-[5-fluoro-6-(2-methoxy-ethoxy)-1H-indazol-3-yl]-isoxazol-3-yl}-phenyl)-6-methyl-2H-pyridazin-3-one] | 5.9 | 140
COCCOc1cc2[nH]nc(-c3cc(-c4ccc(C(=O)N5CC(F)C5)nc4)no3)c2cc1F [A98, (3-fluoro-azetidin-1-yl)-(5-{5-[5-fluoro-6-(2-methoxy-ethoxy)-1H-indazol-3-yl]-isoxazol-3-yl}-pyridin-2-yl)-methanone] | 15 | 860
COCCOc1cc2[nH]nc(-c3cc(-c4ccc(C(=O)N5CCN(C6CCOC6)CC5)cc4)no3)c2cc1F (stereo not shown) [A175, 5-fluoro-6-(2-methoxyethoxy)-3-(3-{4-[4-(oxolan-3-yl)piperazine-1-carbonyl]phenyl}-1,2-oxazol-5-yl)-1H-indazole] | 0.86 | 43
COCCOc1cc2[nH]nc(-c3cc(-c4ccc(C(=O)N5CC(N6CCCCC6)C5)cc4)no3)c2cc1F [A177, 5-fluoro-6-(2-methoxyethoxy)-3-(3-{4-[3-(piperidin-1-yl)azetidine-1-carbonyl]phenyl}-1,2-oxazol-5-yl)-1H-indazole] | 1 | 65
COCCOc1cc2[nH]nc(-c3cc(-c4ccc(C(=O)N5CC6(COC6)C5)cc4)no3)c2cc1F [A74, 5-fluoro-6-(2-methoxyethoxy)-3-[3-(4-{2-oxa-6-azaspiro[3.3]heptane-6-carbonyl}phenyl)-1,2-oxazol-5-yl]-1H-indazole] | 1.3 | 52
